In US20130035321A1, “COMPOUNDS FOR THE TREATMENT OF OCULAR CANCER” (AnalytiCon Discovery GmbH, priority 2009, published 2013):
Entries after “also recorded” stand apart in the source; their conditions may differ. Read-outs that look alike come from different tables or passages of the source.

Experiments:
[1] = tested on: stage Vb retinoblastoma; assay type: in vivo, human
[2] = tested on: RB355 cells; experiment: Cytotoxicity dose response in 384-well plates (Alamar Blue), RB355; assay type: cell-based, human; details: for activity toward RB355 cells below 100 μM: upper limit 100 μM
Protocol: (§1) Dose response studies were performed in 384-well microtiter plates (#3712, Corning Inc., Corning, N.Y.) according to the following protocol: cells were added in 45 μL medium to the screening plates using Flexdrop. After 72 h incubation was added 5 μL Alamar Blue using Flexdrop. The cells were then incubated for another 24 h, and the fluorescence intensity was read on LEADseeker™ Multimodality Imaging System as previously described. To calculate the IC50 for each compound toward each cell line, the dose response was assessed in duplicate and using 12 point doubling dilutions with 100 μM compound concentration as the upper limit. The dose response curve for each set of data was fitted separately, and the two IC50 values obtained were averaged.
as §1, with “averaged. […] IC50 of 0.1 corresponds to <0.1 μM and IC50 of 100 corresponds to >100 μM.” for “averaged.”

[3] = tested on: Y79 cells; experiment: Cytotoxicity dose response in 384-well plates (Alamar Blue), Y79; assay type: cell-based, human; details: for activity toward Y79 cells below 100 μM: upper limit 100 μM; for IC50: read-out: IC50 toward Y79 cells
Protocol: as §1
as §1, with “averaged. […] IC50 of 0.1 corresponds to <0.1 μM and IC50 of 100 corresponds to >100 μM.” for “averaged.”

[4] = tested on: Y79 cells; assay type: cell-based, human
[5] = tested on: Y79, RB355, WERI-Rb-1 and C918 ocular cancer cell lines; experiment: Dose response (SAR) of 35 cardenolides in a panel of four ocular cancer cell lines; assay type: cell-based, human; details: panel Y79, RB355, WERI-Rb-1, C918
Protocol: as §1
To explore the structure activity relationship (SAR) within this chemical class a collection of 35 cardenolides and derivatives was constituted. The dose response for each compound toward the ocular cancer cell lines Y79, RB355, WERI-Rb-1 and C918 was then assessed.

[6] = tested on: Y79 cells; assay type: cell-based, human; remark: listed apart in the source
[7] = tested on: Y79LUC cells; experiment: Subcutaneous Y79LUC xenograft model of retinoblastoma; assay type: in vivo, mouse
Protocol: Subcutaneous xenograft experiments were performed at the Memorial Sloan-Kettering Cancer Center Antitumor Assessment Core Facility. Y79LUC cells (10E6) embedded in matrigel (BD Biosciences, San Jose, Calif.) were injected subcutaneously in the right flank of 8-weeks old ICR/SCID male mice. Treatment started when the tumors reached approximately 250 mm^3. The mice were randomized into three groups and two mice per group were treated with either 10% DMSO (v/v) (control group), 1.5 mg/kg ouabain or 15 mg/kg ouabain. Treatment was performed by continuous subcutaneous infusion using osmotic minipumps (#1007D, Alzet, Cupertino, Calif.). Tumor size was measured externally two times a week with a caliper. Body weight of each mouse was monitored as well as other signs of toxicity throughout the treatment period. Bioluminescent imaging of the tumors was performed once a week and prior to sacrifice as follows: mice were anesthetized by isofluorane inhalation and injected with D-luciferin at 50 mg/Kg (Xenogen) intraperitoneally; photonic emission was measured with the In Vivo Imaging System (IVIS 200, Xenogen) with a collection time of 5 seconds.
The therapeutic effect of the drug ouabain in a mouse xenograft model of retinoblastoma was also investigated. Three groups of two 8 weeks old ICR/SCID male mice bearing Y79 tumors implanted in the flank were treated with either vehicle only, 1.5 mg/kg ouabain or 15 mg/kg ouabain. Mice were continuously infused subcutaneously using an osmotic minipump delivery system. […] In comparison, tumors in the vehicle-treated control group continuously grew, necessitating to euthanize the animals at day 19.

[8] = Homo sapiens, read-out: IC50 toward RB355 cells

N[C@@H](Cc1ccc(N(CCCl)CCCl)cc1)C(=O)O [melphalan]
response to intraarterial chemotherapy ([1]; three cycles, administered elsewhere before presentation): incomplete response; also recorded: no regression on the main tumor or vitreous seeds

N.N.[Cl][Pt][Cl] [cisplatin]
maximum inhibition toward RB355 cells ([2]; at 100 μM): 65%
activity toward Y79 cells below 100 μM [3]: did not demonstrate any significant activity toward Y79 cells below 100 μM

COc1cc([C@@H]2c3cc4c(cc3[C@@H](O[C@@H]3O[C@@H]5CO[C@@H](C)O[C@H]5[C@H](O)[C@H]3O)[C@H]3COC(=O)[C@H]23)OCO4)cc(OC)c1O [etoposide]
IC50 [2, 8]: 970 nM
IC50 ([3]; Homo sapiens, Y79): 11000 nM
apoptosis (activated Caspase-3) compared to baseline [4]: induced significant apoptosis

N.N.O=C([O-])C1(C(=O)[O-])CCC1.[Pt+2] [carboplatin]
activity toward RB355 cells below 100 μM [2]: neither caboplatin or calcitriol had any significant activity below 100 μM
activity toward Y79 cells below 100 μM [3]: did not demonstrate any significant activity toward Y79 cells below 100 μM

C[C@H]1O[C@@H](O[C@H]2[C@@H](O)C[C@H](O[C@H]3[C@@H](O)C[C@H](O[C@H]4CC[C@@]5(C)[C@H](CC[C@@H]6[C@@H]5C[C@@H](O)[C@]5(C)[C@@H](C7=CC(=O)OC7)CC[C@]65O)C4)O[C@@H]3C)O[C@@H]2C)C[C@H](O)[C@@H]1O [digoxin]
exam three weeks after intraarterial infusion ([1]; in vivo): Exam remained stable
exam three weeks after second round of intraarterial infusion ([1]; in vivo): decreased tumor size, fewer vitreous seeds, and resolution of the retinal detachment
exam three weeks after third intraarterial dose ([1]; in vivo): measurable but modest improvement but residual active disease
reexamination after oral treatment ([1]; in vivo, po): progression of disease

COc1ccc(C2=N[C@@H](c3ccc(Cl)cc3)[C@@H](c3ccc(Cl)cc3)N2C(=O)N2CCNC(=O)C2)c(OC(C)C)c1 [nutlin-3]
IC50 ([2]; read-out: IC50 toward RB355 cells): 11000 nM
IC50 [3]: 78000 nM

CC[C@]1(O)C[C@H]2CN(CCc3c([nH]c4ccccc34)[C@@](C(=O)OC)(c3cc4c(cc3OC)N(C=O)[C@H]3[C@@](O)(C(=O)OC)[C@H](OC(C)=O)[C@]5(CC)C=CCN6CC[C@]43[C@@H]65)C2)C1 [vincristine]
IC50 ([2]; Homo sapiens, read-out: IC50 toward RB355): 1.6 nM
plateau of inhibition toward Y79 cells ([3]; plateau prevented calculation of IC50): 50%
apoptosis (activated Caspase-3) compared to baseline [4]: induced significant apoptosis

C[C@@H]1O[C@@H](O[C@H]2C[C@@H](O)[C@]3(CO)[C@H]4[C@H](O)C[C@]5(C)[C@@H](C6=CC(=O)OC6)CC[C@]5(O)[C@@H]4CC[C@]3(O)C2)[C@H](O)[C@H](O)[C@H]1O [ouabain]
activity across the panel of ocular cell lines [5]: potent activity across the entire panel of ocular cell lines tested
IC50 [2, 8]: 400 nM
IC50 ([3]; Homo sapiens, Y79): 650 nM
apoptosis (activated Caspase-3) compared to baseline [4]: induced significant apoptosis; also recorded: induces apoptosis
effect on Y79 cells in Yo-Pro pilot study [6]: eradicated Y79 cells
tumor burden compared to the control group ([7]; 1.5 mg/kg, continuous subcutaneous infusion): seemed to reduce the tumor burden
tumor burden by bioluminescent imaging ([7]; 15 mg/kg, continuous subcutaneous infusion by minipump, after 14 days of treatment): complete tumor regression
average tumor size ([7]; 15 mg/kg, day 14, caliper): 18 mm^3
toxicity (average body weight, signs of toxicity) ([7]; 15 mg/kg, throughout treatment period): did not induce any significant toxicity; also recorded: no signs of toxicity were observed

C=C1/C(=C\C=C2/CCC[C@]3(C)[C@@H]([C@H](C)CCCC(C)(C)O)CC[C@@H]23)C[C@@H](O)C[C@@H]1O [calcitriol]
activity toward RB355 cells below 100 μM [2]: neither caboplatin or calcitriol had any significant activity below 100 μM
activity toward Y79 cells below 100 μM [3]: did not demonstrate any significant activity toward Y79 cells below 100 μM
